Results: PubChem BioAssay AID256 (DTP/NCI, 2004)
Inconclusive results and toxic doses are left out. How the source made its calls: active means survival T/C of 150% or more; inactive means T/C below 125% in these data.

Tested on: CD2F1 mice, L1210 leukemia ip, survival T/C
Assay: NCI In Vivo Anticancer Drug Screen. Data for tumor model L1210 Leukemia (intraperitoneal) in CD2F1 (CDF1) mice
Conditions: higher = longer survival
How it was run: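 Each value reflects a quotient of treated over vehicle control outcomes in mice with a transplanted tumor.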

[1] = endpoint: mean survival time, dose: 100.0 mg/kg/injection, schedule: Q01DX009 (ip), vehicle: saline with Tween-80
[2] = endpoint: mean survival time, dose: 100.0 mg/kg/injection, schedule: Q04DX003 (ip), vehicle: saline with Tween-80
[3] = endpoint: mean survival time, dose: 200.0 mg/kg/injection, schedule: Q01DX009 (ip), vehicle: saline with Tween-80
[4] = endpoint: mean survival time, dose: 200.0 mg/kg/injection, schedule: Q04DX003 (ip), vehicle: saline with Tween-80
[5] = endpoint: mean survival time, dose: 400.0 mg/kg/injection, schedule: Q04DX003 (ip), vehicle: saline with Tween-80
[6] = endpoint: mean survival time, dose: 100.0 mg/kg/injection, schedule: Q01DX001 (ip), vehicle: saline with Tween-80
[7] = endpoint: mean survival time, dose: 200.0 mg/kg/injection, schedule: Q01DX001 (ip), vehicle: saline with Tween-80
[8] = endpoint: mean survival time, dose: 400.0 mg/kg/injection, schedule: Q01DX001 (ip), vehicle: saline with Tween-80
[9] = endpoint: mean survival time, dose: 400.0 mg/kg/injection, schedule: Q01DX009 (ip), vehicle: saline with Tween-80

Measured: T/C

CCCCCCCCCCCCCCCCCC(=O)NNCCO
inactive: [1] 89 % of control | [2] 94 % of control | [3] 89 % of control | [4] 93 % of control | [5] 91 % of control

C[C@]12C=CC(=O)C=C1CC[C@@H]1[C@@H]2CC[C@]2(C)OC(=O)CC[C@@H]12
inactive: endpoint: median survival time, dose: 125.0 mg/kg/injection, schedule: Q01DX009 (sc), vehicle: steriod suspending solution 97 % of control | endpoint: median survival time, dose: 125.0 mg/kg/injection, schedule: Q## X009 (sc), vehicle: steriod suspending solution 97 % of control | endpoint: median survival time, dose: 250.0 mg/kg/injection, schedule: Q01DX009 (sc), vehicle: steriod suspending solution 104 % of control | endpoint: median survival time, dose: 250.0 mg/kg/injection, schedule: Q## X009 (sc), vehicle: steriod suspending solution 104 % of control | endpoint: median survival time, dose: 500.0 mg/kg/injection, schedule: Q01DX009 (sc), vehicle: steriod suspending solution 102 % of control | endpoint: median survival time, dose: 500.0 mg/kg/injection, schedule: Q## X009 (sc), vehicle: steriod suspending solution 102 % of control | endpoint: median survival time, dose: 1000.0 mg/kg/injection, schedule: Q01DX009 (sc), vehicle: steriod suspending solution 102 % of control | endpoint: median survival time, dose: 1000.0 mg/kg/injection, schedule: Q## X009 (sc), vehicle: steriod suspending solution 102 % of control

CC1CC(C)(C)CC2CC(C(=O)O)(C(=O)O)CC12 (stereo not given)
inactive: endpoint: mean survival time, dose: 100.0 mg/kg/injection, schedule: Q04DX003 (ip), vehicle: saline sonified 102 % of control | endpoint: mean survival time, dose: 200.0 mg/kg/injection, schedule: Q04DX003 (ip), vehicle: saline sonified 96 % of control | endpoint: mean survival time, dose: 400.0 mg/kg/injection, schedule: Q04DX003 (ip), vehicle: saline sonified 100 % of control

NC(=O)c1cn(C2OC(CO)C(O)C2O)c2ncn3ncnc3c12 (stereo not given)
inactive: endpoint: mean survival time, dose: 3.13 mg/kg/injection, schedule: Q01DX005 (ip), vehicle: water 113 % of control | endpoint: mean survival time, dose: 6.25 mg/kg/injection, schedule: Q01DX005 (ip), vehicle: water 112 % of control | endpoint: mean survival time, dose: 12.5 mg/kg/injection, schedule: Q01DX005 (ip), vehicle: water 116 % of control | endpoint: mean survival time, dose: 50.0 mg/kg/injection, schedule: Q01DX005 (ip), vehicle: water 98 % of control

COc1ccc(S(=O)(=O)NCCN(C)C)cc1NC(C)=O
inactive: endpoint: mean survival time, dose: 100.0 mg/kg/injection, schedule: Q01DX001 (ip), vehicle: saline 90 % of control | endpoint: mean survival time, dose: 200.0 mg/kg/injection, schedule: Q01DX001 (ip), vehicle: saline 93 % of control | endpoint: mean survival time, dose: 400.0 mg/kg/injection, schedule: Q01DX001 (ip), vehicle: saline 100 % of control

Nc1nnc(C(F)(F)F)s1
inactive: endpoint: mean survival time, dose: 100.0 mg/kg/injection, schedule: Q04DX002 (ip), vehicle: Klucel (hydroxypropylcellulose) (HPC) 101 % of control | endpoint: mean survival time, dose: 200.0 mg/kg/injection, schedule: Q04DX002 (ip), vehicle: Klucel (hydroxypropylcellulose) (HPC) 101 % of control | endpoint: mean survival time, dose: 400.0 mg/kg/injection, schedule: Q04DX002 (ip), vehicle: Klucel (hydroxypropylcellulose) (HPC) 108 % of control

Nc1ncnc2oc(-c3ccccc3)c(-c3ccccc3)c12
inactive: [6] 87 % of control | [7] 89 % of control | [8] 87 % of control

CCCCCCCCCCNCCC(=O)O
inactive: endpoint: mean survival time, dose: 37.5 mg/kg/injection, schedule: Q04DX003 (ip), vehicle: saline 97 % of control | endpoint: mean survival time, dose: 75.0 mg/kg/injection, schedule: Q04DX003 (ip), vehicle: saline 94 % of control | endpoint: mean survival time, dose: 150.0 mg/kg/injection, schedule: Q04DX003 (ip), vehicle: saline 97 % of control

Nc1ccccc1C(=O)O
inactive: [6] 97 % of control | [7] 100 % of control | [8] 100 % of control

O=C(c1ccc(-c2ccccc2)cc1)C1(Br)CCCCC1
inactive: [1] 102 % of control | [2] 101 % of control | [3] 96 % of control | [4] 102 % of control | [9] 97 % of control | [5] 98 % of control

Nc1nc2c(ncn2-c2ccc(O)cc2)c(=O)[nH]1
inactive: [6] 96 % of control | [7] 87 % of control | [8] 91 % of control

CCOC(=O)c1cnc(SC)nc1NC(C)c1ccccc1 (stereo not given)
inactive: [6] 94 % of control | [1] 97 % of control | [7] 88 % of control | [3] 89 % of control | [8] 89 % of control | [9] 94 % of control
